Data set [1] has as its target T1, Human factor Xa (Homo sapiens, UniProt P00742).
T1 construct: It consists of light (139 residues) and heavy (303 residues) chains linked by a disulfide bridge; purchased Hematologic Technologies Inc. (USA)
Nature of the data set: Inhibition of factor Xa hydrolysis of chromogenic substrate S2765 in buffer. The class given is biochemical. As to conditions: for inhibitory activity against factor Xa (in words): in vitro, chromogenic substrate hydrolysis; for Inhibition of hydrolysis rate specific to the factor Xa substrate in the buffer system IC50 / IC50: substrate S2765 250 μM, Xa 0.5 nM, 20 mM HEPES pH 8.0; for IC50: read-out: Inhibition of hydrolysis rate specific to the factor Xa substrate in the buffer system IC50. Here is the method: Human factor Xa was obtained from Hematologic Technologies Inc. (USA). The Xa-specific chromogenic substrate S2765 (Z-D-Arg-Gly-Arg-pNA·2HCl) was purchased from Chromogenix (USA). All other chemicals were of reagent and analytical grade.
The kinetics of factor Xa inhibition was determined from the hydrolysis reaction of a specific substrate by the enzyme in the presence of tested substances. The chromogenic substrate S2765 (Z-D-Arg-Gly-Arg-pNA·2HCl, Chromogenix, Instrumentation Laboratory Company, Lexington, MA 02421, USA) was used for registering accumulation of p-nitroaniline as a colored product by spectrophotometer.
Plate wells were filled with 20 mM HEPES (pH 8.0) containing 140 mM NaCl and 0.1% polyethylene glycol (molecular weight 6000 Da). Thereafter, the substrate was sequentially added to each well (final concentration, 250 μM), followed by the substance being tested (to a final concentration that was varied) and Xa (final concentration, 0.5 nM). The hydrolysis rate was monitored spectrophotometrically at 405 nm (absorption maximum of the reaction product p-nitroaniline).
The initial rate was determined as the slope of the linear part of the kinetic curve over the first 10 to 20 min of measurement. The inhibitory effect was expressed as the percentage of reduction of the initial hydrolysis rate. The reaction rate in the absence of any inhibitor was taken as 100%. Each result is the mean of two parallel determinations. The inhibitor concentration was determined decreasing hydrolysis rate to 50% (IC50). […] Graphs of optical density against time were plotted.

Data set [2] in a line: Solubility as observed during factor Xa testing. The class given is physicochemical. The conditions noted are these: limited the inhibition that could be achieved. From the text: According to the results of our molecular modeling with SOL and DISCORE programs 17 compounds have been selected and investigated in the frame of in vitro experiments.

The text below walks through data of article PMC4592935, “Application of Molecular Modeling to Development of New Factor Xa Inhibitors” (BioMed Research International, 2015).

T1 sequence (P00742 235-488 limits assumed): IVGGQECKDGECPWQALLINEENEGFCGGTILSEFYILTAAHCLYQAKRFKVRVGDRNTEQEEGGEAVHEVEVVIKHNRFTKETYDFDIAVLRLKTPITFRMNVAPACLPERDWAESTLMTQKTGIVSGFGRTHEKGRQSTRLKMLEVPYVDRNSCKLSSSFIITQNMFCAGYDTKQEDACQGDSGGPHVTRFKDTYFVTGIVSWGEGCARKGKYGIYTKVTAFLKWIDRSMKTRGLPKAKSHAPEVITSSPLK
T1 sequence (P00742 41-179 partner limits assumed): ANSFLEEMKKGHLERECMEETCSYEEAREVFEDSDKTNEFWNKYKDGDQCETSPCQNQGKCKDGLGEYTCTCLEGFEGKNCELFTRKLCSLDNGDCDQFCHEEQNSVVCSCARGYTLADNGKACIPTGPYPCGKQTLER

For `CN1CCN(C2CC(=O)N(c3ccc(Oc4ccccc4)cc3)C2=O)CC1` (stereo not drawn) [VGY-0017263], in data set [1], the “inhibitory activity against factor Xa (in words)” value (from here on “inhibitory activity”) was “did not show any inhibitory activity” and the “Inhibition of hydrolysis rate specific to the factor Xa substrate in the buffer system IC50” value (from here on “Inhibition of hydrolysis rate specific”) is “Not inhibited”.

The term IC50 denotes the midpoint of a concentration-inhibition curve. Take `Clc1ccc2nc(Nc3nc(-c4ccccc4)c4ccccc4n3)nc(-c3ccccc3)c2c1` [VGY-0018863]: the IC50 in data set [1] stood at 10 µM.

For `COc1cccc(NC(=O)c2nnc3c(-c4ccc(Br)cc4)c(C)nn3c2C)c1` [VGY-0101011, 8-(4-bromophenyl)-N-(3-methoxyphenyl)-4,7-dimethylpyrazolo[5,1-c][1,2,4]triazine-3-carboxamide], in data set [1], the 50% inhibitory concentration (IC50) turned out to be 2 µM.

In the case of `CC1(c2ccc(Cl)cc2)CC(C)(C)N(C(=O)CSc2ccc(Cl)cc2)c2ccccc21` (stereo not drawn) [VGY-0016013], the IC50 in data set [1] amounted to 19 µM.

Regarding `Cc1nc(N2CCN(C)CC2)[nH]c(=O)c1Cc1ccc(C(C)C)cc1` [VGY-0039772], in data set [1], the “inhibitory activity” value was “did not show any inhibitory activity” and the “Inhibition of hydrolysis rate specific” value is reported as “Not inhibited”.

Turning to “6-[(1,3-benzothiazol-2-ylthio)methyl]-2-[(5,6-dimethylquinazolin-2-yl)amino]pyrimidin-4(3H)-one [VGY-0006889]”, the IC50 in data set [1] stood at 2.3 µM.

As a reminder, the inhibition is the share of the control response that was lost under treatment. For the compound `O=C1CC(c2ccco2)Cc2nc(N3CCN(Cc4ccc5c(c4)OCO5)CC3)ncc21` (stereo not drawn) [VGY-0038035], the “solubility (in words)” value in data set [2] is “poor solubility”. Moreover, the inhibition at 51 µM in data set [1] (at concentration of 51 μM) was found to be 34%. In data set [1], the “inhibitory activity” value is “weakly inhibited” and the “Inhibition of hydrolysis rate specific” value is given as “Weakly inhibited”.

As for `Cc1ccc2nc(Nc3nc(-c4cnc(N5CCCCC5)nc4C)cc(=O)[nH]3)nc(C)c2c1` [VGY-0163641], in data set [1], the IC50 was 12 µM.

As for `Cc1ccc(C)c(N2C(=O)CC(N3CCN(Cc4ccc5c(c4)OCO5)CC3)C2=O)c1` (stereo not drawn) [VGY-0015091], in data set [1], the “inhibitory activity” value is recorded as “did not show any inhibitory activity” and the “Inhibition of hydrolysis rate specific” value is “Not inhibited”.

As to `CC1=CC(C)(C)N2C(=O)C(=C3SC(=S)NC3=O)c3cc(OC(=O)C=Cc4cccc([N+](=O)[O-])c4)cc1c32` [VGY-0018989, 4,4,6-trimethyl-2-oxo-1-(4-oxo-2-thioxo-1,3-thiazolidin-5-ylidene)-1,2-dihydro-4H-pyrrolo[3,2,1-ij]quinolin-8-yl-3-(3-nitrophenyl)prop-2-enoate], the IC50 in data set [1] worked out at 1.8 µM.

Take `O=C1CC(c2cccc(Cl)c2)Cc2nc(N3CCN(Cc4ccc5c(c4)OCO5)CC3)ncc21` (stereo not drawn) [VGY-0037972]: in data set [1], the IC50 stood at 5 µM.

For `Cc1cc2nc(Nc3ncc4c(n3)CC(c3cccs3)CC4=O)nc(C)c2cc1C` (stereo not drawn) [VGY-0037900], in data set [1], the IC50 amounted to 10 µM.

As to `COc1cc2c3c(c1)-c1c(sn(-c4ccc(Oc5ccc(Cl)cc5)cc4)c1=S)C(C)(C)N3C(=O)C2=O` [VGY-0018521], the IC50 in data set [1] stood at 6.3 µM.

`CC1CC2(CCCC2)N2C(=O)C3(NCCc4c3[nH]c3ccccc43)c3cc(F)cc1c32` (stereo not drawn) [VGY-0041455]: in data set [1], the IC50 turned out to be 40 µM.

Consider `COc1ccc(C2CC(=O)c3cnc(Nc4nc(C)c5cc(C)c(C)cc5n4)nc3C2)cc1` (stereo not drawn) [VGY-0035262, 7-(4-methoxyphenyl)-2-[(4,6,7-trimethylquinazolin-2-yl)amino]-7,8-dihydroquinazolin-5(6H)-one], for which the 50% inhibitory concentration (IC50) in data set [1] was found to be 3.1 µM.

`CC1(c2ccc(Cl)cc2)CC(C)(C)N2C(=O)/C(=N/c3ccc(Oc4ccccc4)cc3)c3cccc1c32` (stereo not drawn) [VGY-0027889]: the IC50 in data set [1] worked out at 20.6 µM.

Regarding `CCOc1ccc(N2CN(CCCN3CCOCC3)Cn3c2nc(C)c(C)c3=O)cc1` [VGY-0160076], in data set [1], the “inhibitory activity” value was “did not show any inhibitory activity” and the “Inhibition of hydrolysis rate specific” value was “Not inhibited”.
